# Source: US20120122820A1, “PRODRUGS AND THE USE THEREOF” (Bayer Schering Pharma Aktiengesellschaft, priority 2007, published 2012)
# Counter-ions that a name gives are not always drawn.
# Key:
# [1] = Determination of the solubility (24 h shaking at room temperature, ultracentrifugation, HPLC); type: physicochemical; conditions: thermodynamic from solid
# Method: The test substance is suspended in water or dilute hydrochloric acid (pH 4) [Examples 1-21] or in 5% strength aqueous dextrose solution [Examples 22-40]. This suspension is shaken at room temperature for 24 h. After ultracentrifugation at 224 000 g for 30 min, the supernatant is diluted with DMSO and analyzed by HPLC. A two-point calibration plot of the test compound in DMSO is used for quantification.
# Agilent 1100 with DAD (G1315A), quat. pump (G1311A), autosampler CTC HTS PAL, degasser (G1322A) and column thermostat (G1316A); column: Phenomenex Gemini C18, 5 μm, 50 mm×2 mm; temperature: 40° C.; eluent A: water/phosphoric acid pH 2, eluent B: acetonitrile; flow rate: 0.7 ml/min; gradient: 0-0.5 min 85% A, 15% B; ramp 0.5-3 min 10% A, 90% B; 3-3.5 min 10% A, 90% B; ramp 3.5-4 min 85% A, 15% B; 4-5 min 85% A, 15% B.
# Agilent 1100 with DAD (G1315A), quat. pump (G1311A), autosampler CTC HTS PAL, degasser (G1322A) and column thermostat (G1316A); column: VDSoptilab Kromasil 100 C18, 3.5 μm, 60 mm×2.1 mm; temperature: 30° C.; eluent A: water+5 ml of perchloric acid/liter, eluent B: acetonitrile; flow rate: 0.75 ml/min; gradient: 0-0.5 min 98% A, 2% B; ramp 0.5-4.5 min 10% A, 90% B; 4.5-6 min 10% A, 90% B; ramp 6.5-6.7 min 98% A, 2% B; 6.7-7.5 min 98% A, 2% B.
# [2] = Stability in buffer at various pH values; type: physicochemical
# Method: 0.3 mg of the test substance is weighed into a 2 ml HPLC vial and 0.5 ml of acetonitrile or acetonitrile/DMSO (9:1) is added. The substance is dissolved by putting the sample vessel in an ultrasonic bath for about 10 seconds. Then 0.5 ml of the respective (buffer) solution is added, and the sample is again treated in the ultrasonic bath.
# • pH 4: 1 liter of Millipore water is adjusted to pH 4.0 with 1 N hydrochloric acid; • pH 5: 0.096 mol of citric acid and 0.2 mol of sodium hydroxide ad 1 liter of water; • pH 7.4: 90.0 g of sodium chloride, 13.61 g of potassium dihydrogen phosphate and 83.35 g of 1 N sodium hydroxide solution are made up to 1 liter with water; this solution is then further diluted 1:10 with Millipore water. • pH 8: 0.013 mol of borax and 0.021 mol of hydrochloric acid ad 1 liter of water.
# 5 μl portions of the sample solution are analyzed by HPLC for their content of unchanged test substance, and of parent substance (A) produced, every hour over a period of 24 hours at 37° C. The percentage areas of the appropriate peaks are used for quantification.
# HPLC method for Examples 1-21:
# Agilent 1100 with DAD (G1314A), binary pump (G1312A), autosampler (G1329A), column oven (G1316A), thermostat (G1330A); column: Kromasil 100 C18, 60 mm×2.1 mm, 3.5 μm; column temperature: 30° C.; eluent A: water+5 ml of perchloric acid/liter, eluent B: acetonitrile; gradient: 0-1.0 min 98% A, 2% B; 1.0-9.0 min 2% A, 98% B; 9.0-13.0 min 2% A, 98% B; 13.0-13.5 min 98% A, 2% B; 13.5-15.0 min 98% A, 2% B; flow rate: 0.75 ml/min; UV detection: 210 nm.
# HPLC method for Examples 22-40:
# The ratios of the peak areas (F) at the respective time points in relation to the peak areas at the starting time are shown in Table 3 for representative exemplary embodiments: […]
# [3] = aqueous buffer, dilute hydrochloric acid (pH 4)
# [4] = saline or isotonic, 5% strength aqueous dextrose solution
"solubility at 24 h [1, 3]","solubility at 24 h [1, 4]","% test substance after 4 h [F(t = 4 h) × 100/F(t = 0 h)] ([2]; pH 4, 37° C.)","% test substance after 24 h [F(t = 24 h) × 100/F(t = 0 h)] ([2]; pH 4, 37° C.)","% test substance after 4 h [F(t = 4 h) × 100/F(t = 0 h)] ([2]; pH 5, 37° C.)","% test substance after 24 h [F(t = 24 h) × 100/F(t = 0 h)] ([2]; pH 5, 37° C.)","% test substance after 4 h [F(t = 4 h) × 100/F(t = 0 h)] ([2]; pH 7.4, 37° C.)","% test substance after 24 h [F(t = 24 h) × 100/F(t = 0 h)] ([2]; pH 7.4, 37° C.)",SMILES
90 µg/mL,,,,,,,,"N#Cc1c(N)nc(SCc2csc(-c3ccc(Cl)cc3)n2)c(C#N)c1-c1ccc(OCCOC(=O)CN)cc1 [Example 6, 2-{4-[2-Amino-6-({[2-(4-chlorophenyl)-1,3-thiazol-4-yl]methyl}thio)-3,5-dicyanopyridin-4-yl]-phenoxy}ethyl glycinate dihydrochloride]"
50 µg/mL,,,,,,,,"N#Cc1c(N)nc(SCc2csc(-c3ccc(Cl)cc3)n2)c(C#N)c1-c1ccc(OCCOC(=O)[C@@H]2CCCN2)cc1 [Example 9, 2-{4-[2-Amino-6-({[2-(4-chlorophenyl)-1,3-thiazol-4-yl]methyl}thio)-3,5-dicyanopyridin-4-yl]-phenoxy}ethyl L-prolinate hydrochloride]"
8 µg/mL,,,,,,,,"Cc1ccc(S(=O)(=O)[O-])cc1.N#Cc1c(N)nc(SCc2csc(-c3ccc(Cl)cc3)n2)c(C#N)c1-c1ccc(OCCOC(=O)[C@@H]2CCC[NH2+]2)cc1 [Example 10, 2-{4-[2-Amino-6-({[2-(4-chlorophenyl)-1,3-thiazol-4-yl]methyl}thio)-3,5-dicyanopyridin-4-yl]-phenoxy}ethyl L-prolinate p-toluenesulfonic acid salt]"
70 µg/mL,,,,,,,,"N#Cc1c(N)nc(SCc2csc(-c3ccc(Cl)cc3)n2)c(C#N)c1-c1ccc(OCCOC(=O)[C@@H](N)CO)cc1 [Example 11, 2-{4-[2-Amino-6-({[2-(4-chlorophenyl)-1,3-thiazol-4-yl]methyl}thio)-3,5-dicyanopyridin-4-yl]-phenoxy}ethyl L-serinate hydrochloride]"
60 µg/mL,,,,,,,,"CS(=O)(=O)O.N#Cc1c(N)nc(SCc2csc(-c3ccc(Cl)cc3)n2)c(C#N)c1-c1ccc(OCCOC(=O)[C@@H](N)Cc2ccccc2)cc1 [Example 18, 2-{4-[2-Amino-6-({[2-(4-chlorophenyl)-1,3-thiazol-4-yl]methyl}thio)-3,5-dicyanopyridin-4-yl]-phenoxy}ethyl L-phenylalaninate methanesulfonic acid salt]"
,> 500 µg/mL,100%,99%,96%,74%,,,"N#Cc1c(N)nc(SCc2csc(-c3ccc(Cl)cc3)n2)c(C#N)c1-c1ccc(OCCOC(=O)[C@@H](N)CCN)cc1 [Example 24, 2-{4-[2-Amino-6-({[2-(4-chlorophenyl)-1,3-thiazol-4-yl]methyl}thio)-3,5-dicyanopyridin-4-yl]-phenoxy}ethyl (2S)-2,4-diaminobutanoate dihydrochloride]"
,730 µg/mL,100%,100%,,,41%,4%,"N#Cc1c(NC(=O)CCCN)nc(SCc2csc(-c3ccc(Cl)cc3)n2)c(C#N)c1-c1ccc(OCCOC(=O)CCCN)cc1 [Example 25, 2-(4-{2-[(4-Aminobutanoyl)amino]-6-({[2-(4-chlorophenyl)-1,3-thiazol-4-yl]methyl}thio)-3,5-di-cyanopyridin-4-yl}phenoxy)ethyl 4-aminobutanoate dihydrochloride]"
,> 500 µg/mL,100%,100%,,,11%,2%,"N#Cc1c(NC(=O)CCN)nc(SCc2csc(-c3ccc(Cl)cc3)n2)c(C#N)c1-c1ccc(OCCOC(=O)CCN)cc1 [Example 26, 2-{4-[2-(beta-Alanylamino)-6-({[2-(4-chlorophenyl)-1,3-thiazol-4-yl]methyl}thio)-3,5-dicyano-pyridin-4-yl]phenoxy}ethyl beta-alaninate dihydrochloride]"
,4 µg/mL,,,,,,,"N#Cc1c(N)nc(SCc2csc(-c3ccc(Cl)cc3)n2)c(C#N)c1-c1ccc(OCCOC(=O)/C=C\C(=O)O)cc1 [Example 31, 2-Hydroxy-N,N,N-trimethylethanaminium (2Z)-4-(2-{4-[2-amino-6-({[2-(4-chlorophenyl)-1,3-thiazol-4-yl]methyl}thio)-3,5-dicyanopyridin-4-yl]phenoxy}ethoxy)-4-oxobut-2-enoate]"
,195 µg/mL,,,,,,,"N#Cc1c(N)nc(SCc2csc(-c3ccc(Cl)cc3)n2)c(C#N)c1-c1ccc(OCCOC(=O)[C@@H](N)Cc2c[nH]cn2)cc1 [Example 33, 2-{4-[2-Amino-6-({[2-(4-chlorophenyl)-1,3-thiazol-4-yl]methyl}thio)-3,5-dicyanopyridin-4-yl]-phenoxy}ethyl L-histidinate dihydrochloride]"
,160 µg/mL,100%,100%,,,97%,84%,"CC(C)[C@H](N)C(=O)OCCOc1ccc(-c2c(C#N)c(NC(=O)CCCN(C)C)nc(SCc3csc(-c4ccc(Cl)cc4)n3)c2C#N)cc1 [Example 37, 2-{4-[2-({[2-(4-Chlorophenyl)-1,3-thiazol-4-yl]methyl}thio)-3,5-dicyano-6-{[4-(dimethylamino)-butanoyl]amino}pyridin-4-yl]phenoxy}ethyl L-valinate bistrifluoracetate]"
,> 500 µg/mL,100%,100%,,,100%,94%,"N#Cc1c(N)nc(SCc2csc(-c3ccc(Cl)cc3)n2)c(C#N)c1-c1ccc(OCCOC(=O)[C@@H](N)CCCNC(=N)N)cc1 [Example 38, 2-{4-[2-Amino-6-({[2-(4-chlorophenyl)-1,3-thiazol-4-yl]methyl}sulfanyl)-3,5-dicyanopyridin-4-yl]-phenoxy}ethyl L-argininate trihydrochloride]"
,> 500 µg/mL,100%,100%,,,0%,0%,"N#Cc1c(N)nc(SCc2csc(-c3ccc(Cl)cc3)n2)c(C#N)c1-c1ccc(OCCOC(=O)[C@H](N)CCCN)cc1 [Example 39, 2-{4-[2-Amino-6-({[2-(4-chlorophenyl)-1,3-thiazol-4-yl]methyl}sulfanyl)-3,5-dicyanopyridin-4-yl]-phenoxy}ethyl D-ornithinate dihydrochloride]"
,> 500 µg/mL,99%,94%,,,90%,53%,"N#Cc1c(N)nc(SCc2csc(-c3ccc(Cl)cc3)n2)c(C#N)c1-c1ccc(OCCOC(=O)[C@@H](N)CN)cc1 [Example 40, 2-{4-[2-Amino-6-({[2-(4-chlorophenyl)-1,3-thiazol-4-yl]methyl}sulfanyl)-3,5-dicyanopyridin-4-yl]-phenoxy}ethyl-3-amino L-alaninate dihydrochloride]"
